In ChEMBL document CHEMBL5518207, “Structure Guided Discovery of Novel Pan Metallo-β-Lactamase Inhibitors with Improved Gram-Negative Bacterial Cell Penetration” (J Med Chem, 2024):

Experiments:
[1] = Toxicity in Wistar rat assessed as increase in histamine concentration in plasma at 30 mg/kg, iv measured after 24 hrs; type: organism-based; settings: in vivo
[2] = Unbound fraction in Beagle dog plasma at 1 mg/kg, iv measured after 24 hrs by HPLC-MS analysis; type: ADME, organism-based, Canis lupus familiaris
Klebsiella pneumoniae = test: Potentiation of imipenem induced antibacterial activity against Klebsiella pneumoniae IHMA599644 harbouring VIM-1 incubated for 18 to 22 hrs imipenem by spectrophotometer based analysis; type: functional; settings: time 18-22 hrs
[3] = biological target: Sodium channel protein type 5 subunit alpha (Homo sapiens, UniProt Q14524); test: Inhibition of NaV 1.5 channel (unknown origin)
Pseudomonas aeruginosa [4] = test: Potentiation of imipenem induced antibacterial activity against isogenic efflux wild type Pseudomonas aeruginosa MB9798 harbouring IMP incubated for 18 to 22 hrs imipenem and beta lactamase inhibitor by spectrophotometer based analysis; type: functional; settings: time 18-22 hrs
Pseudomonas aeruginosa [5] = test: Potentiation of imipenem induced antibacterial activity against isogenic efflux deleted mutant Pseudomonas aeruginosa MB9799 harbouring IMP incubated for 18 to 22 hrs imipenem and beta lactamase inhibitor by spectrophotometer based analysis; type: functional; settings: time 18-22 hrs
[6] = biological target: Voltage-gated inwardly rectifying potassium channel KCNH2 (Homo sapiens, UniProt Q12809); test: Inhibition of human ERG; type: toxicity
Pseudomonas aeruginosa [7] = test: Efflux ratio of MITC95 for potentiation of imipenem induced antibacterial activity against isogenic efflux wild type Pseudomonas aeruginosa MB9798 harbouring IMP to MITC95 for potentiation of imipenem induced antibacterial activity against isogenic efflux deleted mutant Pseudomonas aeruginosa MB9799 harbouring IMP; type: functional
[8] = Inhibition of GST tagged VIM-2 (unknown origin) expressed in Escherichia coli BL21 Star (DE3) competent cells using CCF2-FA as substrate incubated for 2 hrs by fluorescence based analysis
Cytochrome P450 2C9 = Cytochrome P450 2C9 (Homo sapiens, UniProt P11712); test: Inhibition of CYP2C9 (unknown origin); type: ADME
[9] = Clearance in rat at 1 mg/kg, iv measured after 24 hrs by HPLC-MS analysis; type: ADME, organism-based; settings: in vivo
[10] = Inhibition of GST tagged IMP-1 (unknown origin) expressed in Escherichia coli BL21 Star (DE3) competent cells using CCF2-FA as substrate incubated for 2 hrs by fluorescence based analysis
[11] = MRT in Beagle dog at 1 mg/kg, iv measured after 24 hrs by HPLC-MS analysis; type: ADME, organism-based, Canis lupus familiaris; settings: in vivo
[12] = Inhibition of GST tagged VIM-1 (unknown origin) expressed in Escherichia coli BL21 Star (DE3) competent cells using CCF2-FA as substrate incubated for 2 hrs by fluorescence based analysis
Serratia marcescens = test: Potentiation of imipenem induced antibacterial activity against Serratia marcescens CL5741 harbouring IMP-1 incubated for 18 to 22 hrs imipenem by spectrophotometer based analysis; type: functional; settings: time 18-22 hrs
Escherichia coli = test: Potentiation of imipenem induced antibacterial activity against Escherichia coli CLB30005 harbouring NDM-1 incubated for 18 to 22 hrs in presence of imipenem by spectrophotometer based analysis; type: functional; settings: time 18-22 hrs
[13] = biological target: Voltage-dependent L-type calcium channel subunit alpha-1C (Homo sapiens, UniProt Q13936); test: Inhibition of Cav1.2 channel (unknown origin)
[14] = Unbound fraction in rat plasma at 1 mg/kg, iv measured after 24 hrs by HPLC-MS analysis; type: ADME, organism-based
[15] = Inhibition of GST tagged NDM-1 (unknown origin) expressed in Escherichia coli BL21 Star (DE3) competent cells using CCF2-FA as substrate incubated for 2 hrs by fluorescence based analysis
[16] = Cmax in Wistar rat at 30 mg/kg, iv measured after 24 hrs by HPLC-MS analysis; type: ADME, organism-based; settings: in vivo
[17] = MRT in rat at 1 mg/kg, iv measured after 24 hrs by HPLC-MS analysis; type: ADME, organism-based; settings: in vivo
[18] = Toxicity in Wistar rat assessed as decrease in mean blood pressure at 30 mg/kg, iv measured after 20 mins; type: organism-based; settings: in vivo
[19] = AUC in rat at 1 mg/kg, iv measured after 24 hrs by HPLC-MS analysis; type: ADME, organism-based; settings: in vivo
Cytochrome P450 2C8 = biological target: T1, Cytochrome P450 2C8 (Homo sapiens, UniProt P10632); test: Inhibition of CYP2C8 (unknown origin); type: ADME
T1 sequence (P10632 whole entry): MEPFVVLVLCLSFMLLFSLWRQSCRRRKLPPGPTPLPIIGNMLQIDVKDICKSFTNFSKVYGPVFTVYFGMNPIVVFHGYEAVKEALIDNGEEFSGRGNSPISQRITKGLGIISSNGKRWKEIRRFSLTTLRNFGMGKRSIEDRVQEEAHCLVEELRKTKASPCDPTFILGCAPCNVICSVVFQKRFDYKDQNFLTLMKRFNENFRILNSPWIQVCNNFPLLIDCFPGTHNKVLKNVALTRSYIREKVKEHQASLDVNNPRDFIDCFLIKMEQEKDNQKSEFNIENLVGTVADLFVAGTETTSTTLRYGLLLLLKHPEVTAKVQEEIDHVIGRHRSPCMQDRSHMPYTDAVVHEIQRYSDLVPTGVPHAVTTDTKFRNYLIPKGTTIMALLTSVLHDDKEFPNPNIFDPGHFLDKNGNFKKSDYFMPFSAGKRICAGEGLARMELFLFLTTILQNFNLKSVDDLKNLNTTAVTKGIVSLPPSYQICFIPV

[20] = Volume of distribution at steady state in Beagle dog at 1 mg/kg, iv measured after 24 hrs by HPLC-MS analysis; type: ADME, organism-based, Canis lupus familiaris; settings: in vivo, read-out: Vdss
[21] = Cmax in Beagle dog at 1 mg/kg, iv measured after 24 hrs by HPLC-MS analysis; type: ADME, organism-based, Canis lupus familiaris; settings: in vivo
[22] = Toxicity in Beagle dog assessed as appearance of watery eyes at 1 mg/kg, iv measured after 24 hrs by HPLC-MS analysis; type: organism-based, Canis lupus familiaris; settings: in vivo
[23] = Toxicity in Beagle dog assessed as increase in histamine level in plasma at 1 mg/kg, iv measured upto 24 hrs by HPLC-MS analysis; type: organism-based, Canis lupus familiaris; settings: in vivo
[24] = AUC in Beagle dog at 1 mg/kg, iv measured after 24 hrs by HPLC-MS analysis; type: ADME, organism-based, Canis lupus familiaris; settings: in vivo
Cytochrome P450 3A4 = Cytochrome P450 3A4 (Homo sapiens, UniProt P08684); test: Inhibition of CYP3A4 (unknown origin); type: ADME
[25] = Clearance in Beagle dog at 1 mg/kg, iv measured after 24 hrs by HPLC-MS analysis; type: ADME, organism-based, Canis lupus familiaris; settings: in vivo
[26] = Volume of distribution at steady state in rat at 1 mg/kg, iv measured after 24 hrs by HPLC-MS analysis; type: ADME, organism-based; settings: in vivo, read-out: Vdss
Cytochrome P450 2D6 = Cytochrome P450 2D6 (Homo sapiens, UniProt P10635); test: Inhibition of CYP2D6 (unknown origin); type: ADME
[27] = biological target: Voltage-gated potassium channel, IKs; KCNQ1(Kv7.1)/KCNE1(MinK) (Homo sapiens, UniProt P15382+P51787); test: Inhibition of KCNQ1/KCNE1 (unknown origin); type: protein-complex assay
[28] = Cmax in rat at 1 mg/kg, iv measured after 24 hrs by HPLC-MS analysis; type: ADME, organism-based; settings: in vivo
[29] = Toxicity in Beagle dog assessed as emesis at 1 mg/kg, iv measured after 24 hrs by HPLC-MS analysis; type: organism-based, Canis lupus familiaris; settings: in vivo
[30] = Cmax in Wistar rat at 100 mg/kg, iv measured after 24 hrs by HPLC-MS analysis; type: ADME, organism-based; settings: in vivo
[31] = MRT in rat at 5 mg/kg, iv measured after 24 hrs by HPLC-MS analysis; type: ADME, organism-based; settings: in vivo
[32] = Clearance in rat at 5 mg/kg, iv measured after 24 hrs by HPLC-MS analysis; type: ADME, organism-based; settings: in vivo
[33] = Toxicity in Beagle dog assessed as drug tolerability at 1 mg/kg, iv measured after 24 hrs by HPLC-MS analysis; type: organism-based, Canis lupus familiaris; settings: in vivo
[34] = Cmax in rat at 5 mg/kg, iv measured after 24 hrs by HPLC-MS analysis; type: ADME, organism-based; settings: in vivo
[35] = Unbound fraction in rat plasma at 5 mg/kg, iv measured after 24 hrs by HPLC-MS analysis; type: ADME, organism-based
[36] = Volume of distribution at steady state in rat at 5 mg/kg, iv measured after 24 hrs by HPLC-MS analysis; type: ADME, organism-based; settings: in vivo, read-out: Vdss
[37] = Toxicity in Wistar rat assessed as decrease in mean blood pressure at 100 mg/kg, iv measured after 20 mins; type: organism-based; settings: in vivo
[38] = Toxicity in Wistar rat assessed as increase in histamine concentration in plasma at 100 mg/kg, iv measured after 24 hrs; type: organism-based; settings: in vivo
[39] = AUC in rat at 5 mg/kg, iv measured after 24 hrs by HPLC-MS analysis; type: ADME, organism-based; settings: in vivo
[40] = Cmax in Wistar rat at 5 mg/kg, iv administered as bolus dose measured after 24 hrs by HPLC-MS analysis; type: ADME, organism-based; settings: in vivo

Cytochrome P450 2D6, sequence (P10635 whole entry): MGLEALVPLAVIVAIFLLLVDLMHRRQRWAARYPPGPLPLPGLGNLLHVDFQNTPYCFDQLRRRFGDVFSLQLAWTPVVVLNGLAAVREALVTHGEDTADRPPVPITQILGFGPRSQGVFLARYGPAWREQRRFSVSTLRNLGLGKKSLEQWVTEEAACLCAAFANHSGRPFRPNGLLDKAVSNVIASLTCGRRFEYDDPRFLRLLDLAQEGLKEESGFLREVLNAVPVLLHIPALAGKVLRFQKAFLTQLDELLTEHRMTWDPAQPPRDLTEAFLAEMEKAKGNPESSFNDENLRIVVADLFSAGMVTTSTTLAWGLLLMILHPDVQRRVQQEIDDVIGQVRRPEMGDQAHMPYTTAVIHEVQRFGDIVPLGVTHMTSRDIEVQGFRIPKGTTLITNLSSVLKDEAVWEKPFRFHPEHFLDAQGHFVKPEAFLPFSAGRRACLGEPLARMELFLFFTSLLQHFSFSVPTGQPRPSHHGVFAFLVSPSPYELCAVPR
Sodium channel protein type 5 subunit alpha, sequence (Q14524 whole entry): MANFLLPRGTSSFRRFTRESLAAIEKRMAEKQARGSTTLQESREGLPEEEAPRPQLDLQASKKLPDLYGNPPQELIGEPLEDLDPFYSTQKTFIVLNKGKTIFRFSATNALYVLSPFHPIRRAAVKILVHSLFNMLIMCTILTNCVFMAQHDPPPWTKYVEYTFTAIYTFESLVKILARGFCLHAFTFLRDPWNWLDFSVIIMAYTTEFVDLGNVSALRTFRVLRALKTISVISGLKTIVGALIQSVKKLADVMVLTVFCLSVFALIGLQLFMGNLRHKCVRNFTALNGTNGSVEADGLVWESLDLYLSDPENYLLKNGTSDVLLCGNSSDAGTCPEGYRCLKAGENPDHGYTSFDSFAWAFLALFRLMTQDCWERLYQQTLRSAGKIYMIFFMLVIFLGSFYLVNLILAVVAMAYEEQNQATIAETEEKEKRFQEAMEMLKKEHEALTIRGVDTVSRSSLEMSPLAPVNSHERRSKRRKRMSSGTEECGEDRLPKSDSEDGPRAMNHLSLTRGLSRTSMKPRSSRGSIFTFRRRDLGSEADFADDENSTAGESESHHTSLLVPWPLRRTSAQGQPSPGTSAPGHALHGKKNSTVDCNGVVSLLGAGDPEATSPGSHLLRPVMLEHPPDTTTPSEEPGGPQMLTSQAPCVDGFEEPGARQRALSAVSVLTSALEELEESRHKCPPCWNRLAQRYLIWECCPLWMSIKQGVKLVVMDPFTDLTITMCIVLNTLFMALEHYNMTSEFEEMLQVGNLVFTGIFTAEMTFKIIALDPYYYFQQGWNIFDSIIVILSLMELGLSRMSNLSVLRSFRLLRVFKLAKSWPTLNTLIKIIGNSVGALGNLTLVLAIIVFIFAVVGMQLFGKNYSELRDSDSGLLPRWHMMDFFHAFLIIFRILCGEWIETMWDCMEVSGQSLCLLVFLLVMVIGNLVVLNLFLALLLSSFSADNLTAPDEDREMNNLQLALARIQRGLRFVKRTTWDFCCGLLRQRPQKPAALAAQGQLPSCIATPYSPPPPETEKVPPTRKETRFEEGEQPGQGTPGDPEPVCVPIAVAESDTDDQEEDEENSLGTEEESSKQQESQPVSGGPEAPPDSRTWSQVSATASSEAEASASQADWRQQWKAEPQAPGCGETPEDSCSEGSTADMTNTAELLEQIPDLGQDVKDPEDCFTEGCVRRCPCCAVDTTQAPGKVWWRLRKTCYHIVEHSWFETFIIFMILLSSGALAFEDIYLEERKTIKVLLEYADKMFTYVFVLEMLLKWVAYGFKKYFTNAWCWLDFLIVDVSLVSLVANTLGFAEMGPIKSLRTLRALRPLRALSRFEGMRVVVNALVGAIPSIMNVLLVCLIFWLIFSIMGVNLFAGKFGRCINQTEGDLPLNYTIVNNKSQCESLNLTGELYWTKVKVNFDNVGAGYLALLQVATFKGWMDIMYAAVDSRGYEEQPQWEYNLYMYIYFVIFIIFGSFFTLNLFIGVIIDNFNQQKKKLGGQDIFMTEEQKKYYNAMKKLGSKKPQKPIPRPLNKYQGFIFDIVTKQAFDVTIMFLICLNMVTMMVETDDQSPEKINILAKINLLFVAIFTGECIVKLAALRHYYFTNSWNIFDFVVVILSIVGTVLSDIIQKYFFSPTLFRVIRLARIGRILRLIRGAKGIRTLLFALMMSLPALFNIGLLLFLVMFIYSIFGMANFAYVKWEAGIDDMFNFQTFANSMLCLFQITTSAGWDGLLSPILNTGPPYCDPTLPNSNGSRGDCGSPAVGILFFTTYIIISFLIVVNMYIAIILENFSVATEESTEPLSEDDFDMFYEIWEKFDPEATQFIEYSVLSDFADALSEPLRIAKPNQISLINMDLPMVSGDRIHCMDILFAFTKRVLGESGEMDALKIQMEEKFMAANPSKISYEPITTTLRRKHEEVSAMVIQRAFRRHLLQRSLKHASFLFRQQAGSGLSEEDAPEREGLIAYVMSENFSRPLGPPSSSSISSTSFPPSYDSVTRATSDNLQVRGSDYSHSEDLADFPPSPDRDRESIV
Voltage-gated potassium channel, IKs; KCNQ1(Kv7.1)/KCNE1(MinK), sequence (P51787 whole entry): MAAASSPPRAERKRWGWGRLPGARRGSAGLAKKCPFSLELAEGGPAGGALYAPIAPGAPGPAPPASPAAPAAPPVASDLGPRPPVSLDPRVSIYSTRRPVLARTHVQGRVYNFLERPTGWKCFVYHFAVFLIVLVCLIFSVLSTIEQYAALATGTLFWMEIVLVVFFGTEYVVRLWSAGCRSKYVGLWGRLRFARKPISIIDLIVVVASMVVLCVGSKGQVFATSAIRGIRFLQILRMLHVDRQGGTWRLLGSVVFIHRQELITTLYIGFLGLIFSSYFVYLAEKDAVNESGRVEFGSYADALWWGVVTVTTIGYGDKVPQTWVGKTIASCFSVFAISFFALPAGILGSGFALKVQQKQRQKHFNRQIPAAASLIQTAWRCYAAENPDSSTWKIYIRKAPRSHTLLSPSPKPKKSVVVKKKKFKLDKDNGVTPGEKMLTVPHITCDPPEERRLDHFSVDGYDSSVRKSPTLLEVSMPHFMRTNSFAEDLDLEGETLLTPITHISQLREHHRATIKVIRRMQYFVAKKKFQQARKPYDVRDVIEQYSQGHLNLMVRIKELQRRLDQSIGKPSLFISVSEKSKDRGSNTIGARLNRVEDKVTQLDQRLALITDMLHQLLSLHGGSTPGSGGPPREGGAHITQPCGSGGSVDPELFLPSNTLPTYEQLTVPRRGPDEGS
Cytochrome P450 3A4, sequence (P08684 whole entry): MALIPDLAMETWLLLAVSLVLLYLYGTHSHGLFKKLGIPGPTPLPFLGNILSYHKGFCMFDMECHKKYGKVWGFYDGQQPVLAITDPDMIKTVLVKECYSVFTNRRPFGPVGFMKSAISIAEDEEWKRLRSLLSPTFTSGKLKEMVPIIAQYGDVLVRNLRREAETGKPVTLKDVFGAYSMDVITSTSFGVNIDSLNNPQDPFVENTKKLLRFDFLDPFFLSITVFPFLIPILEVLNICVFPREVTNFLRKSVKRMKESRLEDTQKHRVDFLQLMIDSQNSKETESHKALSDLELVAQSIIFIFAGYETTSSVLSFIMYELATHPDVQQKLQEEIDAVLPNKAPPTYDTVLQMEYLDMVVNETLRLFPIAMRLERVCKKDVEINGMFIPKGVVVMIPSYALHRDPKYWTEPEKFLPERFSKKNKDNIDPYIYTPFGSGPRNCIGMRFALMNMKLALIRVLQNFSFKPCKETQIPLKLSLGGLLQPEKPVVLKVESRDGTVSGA
Cytochrome P450 2C9, sequence (P11712 whole entry): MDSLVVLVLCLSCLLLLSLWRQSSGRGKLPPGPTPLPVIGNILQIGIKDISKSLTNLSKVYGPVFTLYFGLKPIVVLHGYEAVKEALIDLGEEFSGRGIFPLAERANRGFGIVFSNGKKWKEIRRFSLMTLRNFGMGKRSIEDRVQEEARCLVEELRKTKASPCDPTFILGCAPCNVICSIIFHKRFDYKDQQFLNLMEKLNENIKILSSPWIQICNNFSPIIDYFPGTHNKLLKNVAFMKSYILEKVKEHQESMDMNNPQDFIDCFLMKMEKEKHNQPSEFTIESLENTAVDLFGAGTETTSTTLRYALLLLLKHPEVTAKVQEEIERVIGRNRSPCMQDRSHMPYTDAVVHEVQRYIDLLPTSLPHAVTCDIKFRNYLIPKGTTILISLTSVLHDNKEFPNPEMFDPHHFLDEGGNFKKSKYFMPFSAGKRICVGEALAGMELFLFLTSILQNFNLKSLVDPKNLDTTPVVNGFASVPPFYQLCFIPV

| Compound | MITC95 (Klebsiella pneumoniae) [µM] | IC50 [3] [nM] | MITC95 (Pseudomonas aeruginosa [4]) [µM] | MITC95 (Pseudomonas aeruginosa [5]) [µM] | IC50 [6] [nM] | Ratio (Pseudomonas aeruginosa [7]) | IC50 [8] [nM] | IC50 (Cytochrome P450 2C9) [nM] | IC50 [10] [nM] | IC50 [12] [nM] | MITC95 (Serratia marcescens) [µM] | MITC95 (Escherichia coli) [µM] | IC50 [13] [nM] | IC50 [15] [nM] | IC50 (Cytochrome P450 2C8) [nM] | Cmax [21] [µM] | IC50 (Cytochrome P450 3A4) [nM] | IC50 (Cytochrome P450 2D6) [nM] | IC50 [27] [nM] | also measured |
| --- | --- | --- | --- | --- | --- | --- | --- | --- | --- | --- | --- | --- | --- | --- | --- | --- | --- | --- | --- | --- |
| NS(=O)(=O)c1c(CC2CCNCC2)ccc(-c2ccc(C3CCNCC3)cc2)c1-c1nn[nH]n1 | 2.3 | > 30000 | 4.4 | 0.8 | > 30000 | 6 | 1230 | > 50000 | 24 | 5 | 3.9 | 2 | > 30000 | 11 | > 50000 | 15 | > 50000 | > 50000 | > 30000 | Activity [1]: Toxic; fraction unbound at 24 h [2]: 0.84; clearance [9]: 6.4 mL/min/kg; MRT [11]: 192 min; fraction unbound at 24 h [14]: 0.8; Cmax [16]: 459 µM; MRT [17]: 52.8 min; Activity [18]: Toxic; AUC at 24 h [19]: 5.5 µM·h; Vd [20]: 0.45 L/kg; Activity [22]: Toxic; Activity [23]: Toxic; AUC at 24 h [24]: 10.4 µM·h; clearance [25]: 3.5 mL/min/kg; Vd [26]: 0.34 L/kg; Cmax [28]: 8.6 µM; Activity [29]: Toxic |
| NS(=O)(=O)c1c(C(F)(F)F)ccc(-c2ccc(C3CCN(CC4CNC4)CC3)cc2)c1-c1nnn[nH]1 | 7.8 | > 30000 | 4.7 | 0.39 | > 30000 | 12 | 62 | > 50000 | 0.4 | 3.8 | 1.6 | 0.6 | > 30000 | 2.3 | > 50000 | 13.8 | > 50000 | > 50000 | > 30000 | Cmax [30]: 726 µM; MRT [31]: 42.6 min; clearance [32]: 19 mL/min/kg; Activity [33]: Non-Toxic; Cmax [34]: 33.1 µM; fraction unbound at 24 h [35]: 0.35; Vd [36]: 0.73 L/kg; Activity [37]: Toxic; Activity [38]: Toxic; AUC at 24 h [39]: 9.6 µM·h |
| NS(=O)(=O)c1c(CC2CNC2)ccc(-c2ccc(C3CCNCC3)cc2)c1-c1nn[nH]n1 | 1.6 |  | 3.1 | 0.8 |  | 4 |  |  | 26 | 7 | 1.6 | 0.8 |  | 11 |  |  |  |  |  | Cmax [40]: 45 µM |
